This note sets out measurements from patent US5371102A, “Compositions and methods of inhibiting thyroid activity” (priority 1993, dated 1994).

Series [1] has as its system LPX and TPX. Description: suicide inhibition of peroxidases (summary statements). The class given is biochemical.
In series [2] the target is T1, TPX (Sus scrofa, UniProt P09933).
T1 sequence (P09933 15-926): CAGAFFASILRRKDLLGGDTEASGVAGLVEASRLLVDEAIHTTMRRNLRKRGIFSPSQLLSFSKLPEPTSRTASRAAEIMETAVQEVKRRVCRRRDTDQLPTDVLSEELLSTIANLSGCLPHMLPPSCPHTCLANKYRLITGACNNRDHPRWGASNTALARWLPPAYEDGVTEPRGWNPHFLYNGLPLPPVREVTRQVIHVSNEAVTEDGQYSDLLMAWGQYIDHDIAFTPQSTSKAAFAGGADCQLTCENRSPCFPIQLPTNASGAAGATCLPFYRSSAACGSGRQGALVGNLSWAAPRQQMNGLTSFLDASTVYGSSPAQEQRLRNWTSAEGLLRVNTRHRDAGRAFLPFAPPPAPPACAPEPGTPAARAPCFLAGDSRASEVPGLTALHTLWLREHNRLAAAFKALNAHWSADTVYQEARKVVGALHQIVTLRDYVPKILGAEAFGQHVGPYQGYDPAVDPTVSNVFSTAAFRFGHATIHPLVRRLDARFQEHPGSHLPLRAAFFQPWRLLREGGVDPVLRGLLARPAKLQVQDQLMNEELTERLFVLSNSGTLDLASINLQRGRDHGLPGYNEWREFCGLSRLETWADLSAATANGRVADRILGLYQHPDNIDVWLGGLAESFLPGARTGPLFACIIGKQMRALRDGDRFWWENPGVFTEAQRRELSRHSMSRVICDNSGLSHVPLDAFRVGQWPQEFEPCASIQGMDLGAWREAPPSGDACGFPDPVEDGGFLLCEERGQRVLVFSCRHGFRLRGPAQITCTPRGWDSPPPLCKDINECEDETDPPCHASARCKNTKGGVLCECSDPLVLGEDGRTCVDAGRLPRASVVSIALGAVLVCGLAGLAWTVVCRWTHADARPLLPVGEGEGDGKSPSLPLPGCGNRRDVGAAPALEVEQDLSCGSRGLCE
As to the kind of experiment: TPX-catalyzed iodide oxidation (triiodide formation), spectrophotometric. It counts as biochemical, hog. The source says: Materials used in the examples below were obtained from the following sources. Bovine LPX, bovine liver catalase, glucose oxidase, 30% hydrogen peroxide, glucose, guaiacol, ABTS and deuterium oxide were purchased from Sigma Chemical Company. Selenium dioxide, MBI ^13 CH3 I and PBA were purchased from Aldrich Chemical Company and PBA was purified as previously described by Fieset et al., Reagents for Organic Synthesis, Vol. I, pp.135-139, John Wiley and Sons, N.Y. (1967). LPX purity was checked by PAGE, as described by Doerge, D.R., et al. in, Biochem. Pharmacol., Vol.36, pp.972-974 (1986). TPX was purified from hog thyroids obtained from a local slaughterhouse by published procedures. Doerge & Takazowa, Chemical Research in Toxicology, Vol. 3, pp. 98-101 (1990). TPX purity was determined by LC and its concentration determined spectophotometrically. Hydroperoxide concentrations were determined by iodometric titration, as described by Kolthoff, et al., in "Quantitative Chemical Analysis", Macmillan, London, pp.842-860 (1969). MMBI, and BI were synthesized by published procedures as described by Doerge, D.R., Biochem, Vol. 27, pp. 3697-3700 (1988) and were recrystallized from aqueous ethanol. MeBI was purified by distillation and DMeBI^+ was synthesized and purified by recrystallization from ethyl acetate/methanol. 1-^13 C-MMBI was synthesized from ^13 CH3 I according to the procedure disclosed by Doerge, D.R., in, J. Lab. Comp. and Radiopharm., Vol.25, pp.985-990 (1988). PPHP and PPA were prepared, purified and analyzed as previously described by Doerge, Biochem, Vol.27, p.11 (1988). The methyl ester of 1-methyl-benzimidazole-2-sulfinic acid was prepared by addition of hydrogen peroxide (5 equivalents of a 10 M solution) to MMBI (0.1 M) in methanol. The products, MeBI and the ester, were obtained following preparative TLC on silica (Uniplate, Analtech Co., Newark, DL) using 5% methanol/chloroform as eluant. […]
1,3-diacetyl MBI (AczMBI) was synthesized according to the method published by Doerge et al., Syn. […] Varying quantities of Ac2 MBI were incubated with TPX, H2 O2, and I^-. […]

For series [3], the target named is T1, TPX. Description: TPX inactivation. The class given is biochemical, hog. The source says: (§1) Materials used in the examples below were obtained from the following sources. Bovine LPX, bovine liver catalase, glucose oxidase, 30% hydrogen peroxide, glucose, guaiacol, ABTS and deuterium oxide were purchased from Sigma Chemical Company. Selenium dioxide, MBI ^13 CH3 I and PBA were purchased from Aldrich Chemical Company and PBA was purified as previously described by Fieset et al., Reagents for Organic Synthesis, Vol. I, pp.135-139, John Wiley and Sons, N.Y. (1967). LPX purity was checked by PAGE, as described by Doerge, D.R., et al. in, Biochem. Pharmacol., Vol.36, pp.972-974 (1986). TPX was purified from hog thyroids obtained from a local slaughterhouse by published procedures. Doerge & Takazowa, Chemical Research in Toxicology, Vol. 3, pp. 98-101 (1990). TPX purity was determined by LC and its concentration determined spectophotometrically. Hydroperoxide concentrations were determined by iodometric titration, as described by Kolthoff, et al., in "Quantitative Chemical Analysis", Macmillan, London, pp.842-860 (1969). MMBI, and BI were synthesized by published procedures as described by Doerge, D.R., Biochem, Vol. 27, pp. 3697-3700 (1988) and were recrystallized from aqueous ethanol. MeBI was purified by distillation and DMeBI^+ was synthesized and purified by recrystallization from ethyl acetate/methanol. 1-^13 C-MMBI was synthesized from ^13 CH3 I according to the procedure disclosed by Doerge, D.R., in, J. Lab. Comp. and Radiopharm., Vol.25, pp.985-990 (1988). PPHP and PPA were prepared, purified and analyzed as previously described by Doerge, Biochem, Vol.27, p.11 (1988). The methyl ester of 1-methyl-benzimidazole-2-sulfinic acid was prepared by addition of hydrogen peroxide (5 equivalents of a 10 M solution) to MMBI (0.1 M) in methanol. The products, MeBI and the ester, were obtained following preparative TLC on silica (Uniplate, Analtech Co., Newark, DL) using 5% methanol/chloroform as eluant.
DMMBI was synthesized according to a published method. Duffin et al., J. Chem. Soc., Part II, pp.364-365 (1956). Samples including TPX, H2 O2, and I^- were incubated with and without DMMBI. Triiodide formation was observed spectrophotometrically with respect to time.

The nature of series [4]: reaction of DMMBI with preformed triiodide. As to conditions: triiodide formed by H2O2, LPX and iodide ion. The text has this:
When triiodide ion was formed by addition of hydrogen peroxide to LPX and iodide ion, addition of DMMBI caused rapid quenching of triiodide (ca. 1 sec) and DMeBI^+ was the sole product. Triiodide produced by addition of […] to aqueous iodide ion reacted identically with DMMBI.

Series [5] in a line: kinetics of thione oxygenation by hydrogen peroxide/TFA. The class given is physicochemical. The settings on record: thione 25 μM, H2O2 34 mM, TFA 163 mM in methanol, 25° C.; relative to DMMBI. Here is the method: The kinetics of thione oxygenation were determined for MBI, MMBI and DMMBI. Oxygenation by hydrogen peroxide/TFA was measured spectrophotometrically (305 nm) at 25° C. by addition of thione (final concentration 25 μM) to hydrogen peroxide (34 mM) and TFA (163 mM) in methanol.

Series [6] has as its target T2, LPX (Bos taurus, UniProt P80025).
T2 construct: purchased Sigma Chemical Company
As to the kind of experiment: LPX-mediated covalent binding of labelled thiocarbamides to LPX. Further details: species or system bovine. As to conditions: +H2O2 vs. +H2O2 +KI; 14C- and 35S-labelled.
Excerpt: as §1
LPX-mediated covalent binding of ^14 C- and ^35 S-labelled thiocarbamides to LPX under iodide-dependent and -independent conditions was measured.

The target in series [7] is T2, LPX. Description: LPX-catalyzed tyrosine iodination. The class given is biochemical, bovine. The source says:
Materials used in the examples below were obtained from the following sources. Bovine LPX, bovine liver catalase, glucose oxidase, 30% hydrogen peroxide, glucose, guaiacol, ABTS and deuterium oxide were purchased from Sigma Chemical Company. Selenium dioxide, MBI ^13 CH3 I and PBA were purchased from Aldrich Chemical Company and PBA was purified as previously described by Fieset et al., Reagents for Organic Synthesis, Vol. I, pp.135-139, John Wiley and Sons, N.Y. (1967). LPX purity was checked by PAGE, as described by Doerge, D.R., et al. in, Biochem. Pharmacol., Vol.36, pp.972-974 (1986). TPX was purified from hog thyroids obtained from a local slaughterhouse by published procedures. Doerge & Takazowa, Chemical Research in Toxicology, Vol. 3, pp. 98-101 (1990). TPX purity was determined by LC and its concentration determined spectophotometrically. Hydroperoxide concentrations were determined by iodometric titration, as described by Kolthoff, et al., in "Quantitative Chemical Analysis", Macmillan, London, pp.842-860 (1969). […] PPHP and PPA were prepared, purified and analyzed as previously described by Doerge, Biochem, Vol.27, p.11 (1988). […]
In this experiment the effect of DMMBI on tyrosine iodination catalyzed by LPX was determined. […]

Turning to `Cn1c(=S)n(C)c2ccccc21` [DMMBI, 1,3-dimethylbenzimidazole-2-thione], the “selectivity for iodide ion oxidation” value in series [1] (alternate substrate mechanism) is reported as “block only reactions involving iodide ion oxidation”. In series [1] (summary of own examples), the suicide inhibition entry is “not suicide inhibitors”. The “effect on triiodide formation” value in series [2] (TPX, H2O2 and I-) is “causes a lag in triiodide formation, followed by an increase in the rate of triiodide formation approximating the control rate”. Moreover, the “inhibition of iodide ion oxidation” value in series [2] (TPX/hydrogen peroxide) is on record as “inhibits only iodide ion oxidation”. The TPX inactivation entry in series [3] (100 μM, 1 minute incubation) is recorded as “does not inactivate TPX”; in series [3] (presence of hydrogen peroxide) it was “does not inactivate LPX or TPX”. For the same compound, in series [4], the “time of triiodide quenching” value is “ca. 1 sec”. The “relative rate of oxygenation” value in series [5] is reported as 1. Also, the “covalent binding to LPX” value in series [6] is on record as “no binding over unstimulated controls”. Further, the tyrosine iodination entry in series [7] is reported as “inhibits tyrosine iodination”.
